What is called IC50 is the concentration that inhibits the measured activity by half.

The target of the assay is T1, human EDG-2 (Homo sapiens, UniProt Q92633).
T1 construct: cDNA of the cloned human EDG-2 was introduced into pEFneo, which is an animal expression vector; expressed in transfected cells; host or cells: HepG2
T1 sequence (Q92633 whole entry): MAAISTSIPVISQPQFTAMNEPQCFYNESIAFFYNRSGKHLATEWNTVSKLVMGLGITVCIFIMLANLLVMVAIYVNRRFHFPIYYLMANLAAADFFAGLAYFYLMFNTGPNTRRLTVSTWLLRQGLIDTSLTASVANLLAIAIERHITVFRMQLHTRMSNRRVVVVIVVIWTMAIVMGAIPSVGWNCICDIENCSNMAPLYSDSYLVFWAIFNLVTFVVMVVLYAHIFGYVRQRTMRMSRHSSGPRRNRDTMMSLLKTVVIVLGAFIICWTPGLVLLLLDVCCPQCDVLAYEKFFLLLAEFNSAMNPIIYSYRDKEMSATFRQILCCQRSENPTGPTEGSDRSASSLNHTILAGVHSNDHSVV
The assay can be described thus: Inhibitory activity on LPA-induced elevation of intracellular Ca2+ level. In kind it is cell-based. The note with it: 50% inhibition of elevation of intracellular Ca2+ level by LPA, human EDG-2/HepG2 cells, fura-2. The text has this: The human EDG-2 expression plasmid was introduced into HepG2 cells by electroporation. After the introduction, culturing was continued while exchanging selective media every 3 to 4 days, thereby obtaining an expressed colony. Regarding these cells, Ca-influx and cell-proliferation by LPA, level of [^3H] LPA binding and the like were inspected to select a cell line which highly expresses human EDG-2 (human EDG-2/HepG2).
Human EDG-2/HepG2 cells were washed and then suspended in 0.1% BSA (bovine serum albumin)-containing HEPES buffer. A fluorescent indicator, fura-2/AM (Wako Pure Chemical Industries, Ltd.), was added, and the mixture was shaken at room temperature for 45 minutes so that the indicator is included in the cell. Cells were washed again and then suspended in 0.1% BSA-containing HEPES buffer, and intracellular Ca^2+ level was assayed using FDSS2000 (Hamamatsu Photonics). […] Each test compound was added to the cell suspension followed by the addition of LPA, thereby examining the inhibitory activity of the test compound on the function of LPA for elevating the intracellular Ca level. […] The lower the IC50 value, the higher the antagonistic activity on the LPA receptor.
As to `Cc1noc(-c2ccc(C#N)cc2)c1NC(=O)OC(C)c1ccccc1` (stereo not drawn) [Compound 46, 1-Phenylethyl N-[5-(4-cyanophenyl)-3-methyl-4-isoxazolyl]carbamate], the IC50 lay within 3 to 10 µM.

`Cc1ccc(-c2onc(C)c2NC(=O)O[C@H](C)c2ccccc2Br)cc1` [Compound 48, (1R)-1-(2-Bromophenyl)ethyl N-[3-methyl-5-(4-methylphenyl)-4-isoxazolyl]carbamate] displayed an IC50 of 3 to 10 µM.

Turning to `Cc1ccc(-c2onc(C)c2NC(=O)OC(C)c2ccccc2F)cc1` (stereo not drawn) [Compound 49, 1-(2-Fluorophenyl)ethyl N-[3-methyl-5-(4-methylphenyl)-4-isoxazolyl]carbamate], the IC50 is 10 to 30 µM.

Regarding `COc1ccc(-c2onc(C)c2NC(=O)OC(C)c2ccccc2Cl)cc1` (stereo not drawn) [Compound 50, 1-(2-Chlorophenyl)ethyl N-[5-(4-methoxyphenyl)-3-methyl-4-isoxazolyl]carbamate], the concentration for half-maximal inhibition (IC50) is 10 to 30 µM.

In turn, `Cc1noc(-c2ccccc2Br)c1NC(=O)OC(C)c1ccccc1Cl` (stereo not drawn) [Compound 51, 1-(2-Chlorophenyl)ethyl N-[5-(2-bromophenyl)-3-methyl-4-isoxazolyl]carbamate] registered an IC50 of 10 to 30 µM.

For `Cc1noc(-c2ccc3c(c2)OCO3)c1NC(=O)OC(C)c1ccccc1Cl` (stereo not drawn) [Compound 52, 1-(2-Chlorophenyl)ethyl N-[5-(1,3-benzodioxol-5-yl)-3-methyl-4-isoxazolyl]carbamate], the IC50 came to 30 µM.

On to `Cc1noc(-c2cccc(OC(F)(F)F)c2)c1NC(=O)OC(C)c1ccccc1Cl` (stereo not drawn) [Compound 53, 1-(2-Chlorophenyl)ethyl N-[3-methyl-5-[3-(trifluoromethoxy)phenyl]-4-isoxazolyl]carbamate], for which the IC50 turned out to be 30 µM.

For `Cc1noc(-c2ccc([N+](=O)[O-])cc2)c1NC(=O)OC(C)c1ccccc1` (stereo not drawn) [Compound 54, 1-Phenylethyl N-[3-methyl-5-(4-nitrophenyl)-4-isoxazolyl]carbamate], the IC50 lay within 10 to 30 µM.

As to `Cc1noc(-c2ccc([N+](=O)[O-])cc2)c1NC(=O)OC(C)c1ccccc1Cl` (stereo not drawn) [Compound 55, 1-(2-Chlorophenyl)ethyl N-[3-methyl-5-(4-nitrophenyl)-4-isoxazolyl]carbamate], the IC50 lay within 3 to 10 µM.

Compound `Cc1noc(-c2cccs2)c1NC(=O)OC(C)c1ccccc1` (stereo not drawn) [Compound 56, 1-Phenylethyl N-[3-methyl-5-(2-thienyl)-4-isoxazolyl]carbamate] yielded an IC50 of 3 to 10 µM.

Compound `Cc1noc(-c2cccs2)c1NC(=O)OC(C)c1ccccc1Cl` (stereo not drawn) [Compound 57, 1-(2-Chlorophenyl)ethyl N-[3-methyl-5-(2-thienyl)-4-isoxazolyl]carbamate] gave an IC50 of 3 µM.

Consider `Cc1noc(-c2cccc([N+](=O)[O-])c2)c1NC(=O)OC(C)c1ccccc1` (stereo not drawn) [Compound 58, 1-Phenylethyl N-[3-methyl-5-(3-nitrophenyl)-4-isoxazolyl]carbamate], for which the half-inhibitory concentration (IC50) was determined as 10 µM.

Take `Cc1noc(-c2cccc([N+](=O)[O-])c2)c1NC(=O)OC(C)c1ccccc1Cl` (stereo not drawn) [Compound 59, 1-(2-Chlorophenyl)ethyl N-[3-methyl-5-(3-nitrophenyl)-4-isoxazolyl]carbamate]: the IC50 fell in the range of 3 to 10 µM.

Compound `Cc1noc(-c2ccc(F)cc2F)c1NC(=O)OC(C)c1ccccc1Cl` (stereo not drawn) [Compound 60, 1-(2-Chlorophenyl)ethyl N-[5-(2,4-difluorophenyl)-3-methyl-4-isoxazolyl]carbamate] came in with a half-inhibitory concentration (IC50) of 1 to 3 µM.

For `Cc1noc(-c2ccncc2)c1NC(=O)OC(C)c1ccccc1` (stereo not drawn) [Compound 61, 1-Phenylethyl N-[3-methyl-5-(4-pyridyl)-4-isoxazolyl]carbamate], the IC50 lay within 3 to 10 µM.

`Cc1noc(-c2ccc(Cl)nc2)c1NC(=O)OC(C)c1ccccc1Cl` (stereo not drawn) [Compound 63, 1-(2-Chlorophenyl)ethyl N-[5-(6-chloro-3-pyridyl)-3-methyl-4-isoxazolyl]carbamate] had an IC50 of 30 µM.

In turn, `CCCCc1ccc(-c2onc(C)c2NC(=O)OC(C)c2ccccc2)cc1` (stereo not drawn) [Compound 64, 1-Phenylethyl N-[5-(4-butylphenyl)-3-methyl-4-isoxazolyl]carbamate] came in with an IC50 of 10 to 30 µM.

For the compound `CCCCc1ccc(-c2onc(C)c2NC(=O)OC(C)c2ccccc2Cl)cc1` (stereo not drawn) [Compound 65, 1-(2-Chlorophenyl)ethyl N-[5-(4-butylphenyl)-3-methyl-4-isoxazolyl]carbamate], the half-inhibitory concentration (IC50) was in the range of 10 to 30 µM.

Regarding `Cc1ccsc1-c1onc(C)c1NC(=O)OC(C)c1ccccc1` (stereo not drawn) [Compound 66, 1-Phenylethyl N-[3-methyl-5-(3-methyl-2-thienyl)-4-isoxazolyl]carbamate], the IC50 came to 10 µM.

For `Cc1noc(-c2ccoc2)c1NC(=O)OC(C)c1ccccc1Cl` (stereo not drawn) [Compound 68, 1-(2-Chlorophenyl)ethyl N-[5-(3-furyl)-3-methyl-4-isoxazolyl]carbamate], the IC50 was 3 to 10 µM.

Regarding `Cc1ccc(-c2onc(C)c2NC(=O)OC(C)c2ccccc2Cl)s1` (stereo not drawn) [Compound 69, 1-(2-Chlorophenyl)ethyl N-[3-methyl-5-(5-methyl-2-thienyl)-4-isoxazolyl]carbamate], the IC50 is 3 to 10 µM.

With `Cc1noc(-c2cccc(CCl)c2)c1NC(=O)OC(C)c1ccccc1Cl` (stereo not drawn) [Compound 70, 1-(2-Chlorophenyl)ethyl N-[5-[3-(chloromethyl)phenyl]-3-methyl-4-isoxazolyl]carbamate], the IC50 lay within 1 to 3 µM.

On to `Cc1noc(-c2c(-c3ccccc3)noc2C)c1NC(=O)OC(C)c1ccccc1Cl` (stereo not drawn) [Compound 72, 1-(2-Chlorophenyl)ethyl N-[5-(3-phenyl-5-methyl-4-isoxazolyl)-3-methyl-4-isoxazolyl]carbamate], for which the 50% inhibitory concentration (IC50) was in the range of 10 to 30 µM.

Take `Cc1noc(-c2ccc(Br)o2)c1NC(=O)OC(C)c1ccccc1Cl` (stereo not drawn) [Compound 73, 1-(2-Chlorophenyl)ethyl N-[5-(5-bromo-2-furyl)-3-methyl-4-isoxazolyl]carbamate]: the IC50 fell in the range of 1 to 3 µM.

Turning to `Cc1noc(-c2ccc(CCl)cc2)c1NC(=O)OC(C)c1ccccc1Cl` (stereo not drawn) [Compound 74, 1-(2-Chlorophenyl)ethyl N-[5-[4-(chloromethyl)phenyl]-3-methyl-4-isoxazolyl]carbamate], the IC50 was in the range of 1 to 3 µM.

`Cc1noc(-c2ccsc2)c1NC(=O)OC(C)c1ccccc1Cl` (stereo not drawn) [Compound 75, 1-(2-Chlorophenyl)ethyl N-[3-methyl-5-(3-thienyl)-4-isoxazolyl]carbamate] showed an IC50 of 3 to 10 µM.

Turning to `CCc1noc(-c2ccccc2)c1NC(=O)OC(C)c1ccccc1Cl` (stereo not drawn) [Compound 76, 1-(2-Chlorophenyl)ethyl N-(3-ethyl-5-phenyl-4-isoxazolyl)carbamate], the 50% inhibitory concentration (IC50) was in the range of 1 to 3 µM.

`CCc1noc(-c2ccc(C#N)cc2)c1NC(=O)OC(C)c1ccccc1Cl` (stereo not drawn) [Compound 77, 1-(2-Chlorophenyl)ethyl N-[5-(4-cyanophenyl)-3-ethyl-4-isoxazolyl]carbamate] returned an IC50 of 1 to 3 µM.

Compound `COCc1noc(-c2ccccc2)c1NC(=O)OC(C)c1ccccc1Cl` (stereo not drawn) [Compound 78, 1-(2-Chlorophenyl)ethyl N-[3-(methoxymethyl)-5-phenyl-4-isoxazolyl]carbamate] showed an IC50 of 30 µM.

For the compound `Cc1noc(-c2ccc(COc3ccccc3)cc2)c1NC(=O)OC(C)c1ccccc1Cl` (stereo not drawn) [Compound 79, 1-(2-Chlorophenyl)ethyl N-[3-methyl-5-[4-(phenoxymethyl)phenyl]-4-isoxazolyl]carbamate], half-maximal inhibition (IC50) was put at 3 µM.

Values taken from patent US6964975B2, “Isoxazole and thiazole compounds and use thereof as medicine” (Kirin Beer Kabushiki Kaisha, priority 2000, dated 2005).
